We go through two compounds from ChEMBL document CHEMBL4321812, “Structure-based rational design of staurosporine-based fluorescent probe with broad-ranging kinase affinity for kinase panel application” (Bioorg Med Chem Lett, 2019).

Usually Kd stands for the constant that tells how readily two partners part at equilibrium.

One test addresses Ephrin type-A receptor 8 (Homo sapiens, UniProt P29322). Nature of the test: Binding affinity to recombinant N-terminal His-FLAG-GST-tagged […] (unknown origin) (571 to 924 residues) expressed in baculovirus infected Sf9 insect cells incubated for 1 hr by TR-FRET assay.
Test [1] concerns the target Serine/threonine-protein kinase pim-2 (Homo sapiens, UniProt Q9P1W9). Nature of the test: Binding affinity to recombinant human full-length N-terminal GST-tagged PIM2 expressed in baculovirus expression system using S6K2 peptide as substrate incubated for 1 hr by TR-FRET assay. (In TR-FRET formats the signal depends on donor and acceptor labels being close together.)

Test [2] deals with Serine/threonine-protein kinase SIK3 (Homo sapiens, UniProt Q9Y2K2). Nature of the test: Binding affinity to recombinant N-terminal His-FLAG-GST-tagged SIK3 (unknown origin) (59 to 365 residues) expressed in baculovirus infected Sf9 insect cells incubated for 1 hr by TR-FRET assay.
Test [3] addresses Serine/threonine-protein kinase MRCK gamma (Homo sapiens, UniProt Q6DT37). Nature of the test: Binding affinity to recombinant full-length N-terminal His-FLAG-GST-tagged DMPK2 (unknown origin) expressed in baculovirus infected Sf9 insect cells incubated for 1 hr by TR-FRET assay.
For test [4], the target named is Serine/threonine-protein kinase pim-3 (Homo sapiens, UniProt Q86V86). Nature of the test: Binding affinity to recombinant human full-length N-terminal GST-tagged PIM3 expressed in baculovirus expression system using S6K2 peptide as substrate incubated for 1 hr by TR-FRET assay.
For the next test, the target named is Ephrin type-B receptor 4 (Homo sapiens, UniProt P54760). Nature of the test: Binding affinity to recombinant N-terminal His-FLAG-GST-tagged EPHB4 (unknown origin) (577 to 987 residues) expressed in baculovirus infected Sf9 insect cells incubated for 1 hr by TR-FRET assay.
The next test has as its target Ephrin type-B receptor 2 (Homo sapiens, UniProt P29323). Nature of the test: Binding affinity to recombinant N-terminal His-FLAG-GST-tagged EPHB2 (unknown origin) (581 to 986 residues) expressed in baculovirus infected Sf9 insect cells incubated for 1 hr by TR-FRET assay.
The target in test [5] is Tyrosine-protein kinase TXK (Homo sapiens, UniProt P42681). Nature of the test: Binding affinity to recombinant human N-terminal GST-tagged TXK (260 to 527 residues) expressed in baculovirus expression system using srctide as substrate incubated for 1 hr by TR-FRET assay.
A further test has as its target Ephrin type-B receptor 6 (Homo sapiens, UniProt O15197). Nature of the test: Binding affinity to recombinant N-terminal His-FLAG-GST-tagged EPHB6 (unknown origin) (683 to 1130 residues) expressed in baculovirus infected Sf9 insect cells incubated for 1 hr by TR-FRET assay.
A further test has as its target Ephrin type-A receptor 4 (Homo sapiens, UniProt P54764). Nature of the test: Binding affinity to recombinant N-terminal His-FLAG-GST-tagged EPHA4 (unknown origin) (586 to 986 residues) expressed in baculovirus infected Sf9 insect cells incubated for 1 hr by TR-FRET assay.
For test [6], the target named is Serine/threonine-protein kinase Chk2 (Homo sapiens, UniProt O96017). Nature of the test: Binding affinity to recombinant full-length N-terminal His-FLAG-GST-tagged CHEK2 (unknown origin) expressed in baculovirus infected Sf9 insect cells incubated for 1 hr by TR-FRET assay.
Test [7] has as its target Cyclin-dependent kinase 5/CDK5 activator 1 (Homo sapiens, UniProt Q00535). Nature of the test: Binding affinity to recombinant human full-length N-terminal GST-tagged CDK5 (1 to 292 residues)/N-terminal His6-tagged p25 (99 to 307 residues) expressed in baculovirus expression system using modified histone H1 as substrate incubated for 1 hr by TR-FRET assay.
Test [8] concerns the target Tyrosine-protein kinase ABL1 (Homo sapiens, UniProt P00519). Nature of the test: Binding affinity to recombinant human full-length N-terminal His-tagged ABL1 expressed in baculovirus expression system incubated for 1 hr by TR-FRET assay.
Test [9] deals with Proto-oncogene tyrosine-protein kinase ROS (Homo sapiens, UniProt P08922). Nature of the test: Binding affinity to recombinant N-terminal His-FLAG-tagged ROS1 (unknown origin) (1883 to 2347 residues) expressed in baculovirus infected Sf9 insect cells incubated for 1 hr by TR-FRET assay.
In test [10] the target is Tyrosine-protein kinase JAK2 (Homo sapiens, UniProt O60674). Nature of the test: Binding affinity to recombinant N-terminal His-FLAG-GST-tagged JAK2 (unknown origin) (826 to 1132 residues) expressed in baculovirus infected Sf9 insect cells incubated for 1 hr by TR-FRET assay.
In test [11] the target is Tyrosine-protein kinase ZAP-70 (Homo sapiens, UniProt P43403). Nature of the test: Binding affinity to recombinant full-length N-terminal His-FLAG-GST-tagged ZAP70 (unknown origin) expressed in baculovirus infected Sf9 insect cells incubated for 1 hr by TR-FRET assay.
A further test deals with CDK2/Cyclin A2 (Homo sapiens, UniProt P24941). Nature of the test: Binding affinity to recombinant human full-length N-terminal GST-tagged CDK2/cyclin A2 expressed in baculovirus expression system using modified Histone H1 as substrate incubated for 1 hr by TR-FRET assay.
For test [12], the target named is cAMP-dependent protein kinase catalytic subunit PRKX (Homo sapiens, UniProt P51817). Nature of the test: Binding affinity to recombinant full-length N-terminal His-FLAG-GST-tagged PRKX (unknown origin) expressed in baculovirus infected Sf9 insect cells incubated for 1 hr by TR-FRET assay.
Test [13] has as its target Serine/threonine-protein kinase Chk1 (Homo sapiens, UniProt O14757). Nature of the test: Binding affinity to recombinant human full-length N-terminal His-tagged CHEK1 expressed in baculovirus expression system using CHKtide as substrate incubated for 1 hr by TR-FRET assay.
The target in test [14] is Dual specificity mitogen-activated protein kinase kinase 7 (Homo sapiens, UniProt O14733). Nature of the test: Binding affinity to recombinant human full-length N-terminal GST-tagged MAP2K7 (1 to 419 residues) expressed in baculovirus expression system using JNK2 as substrate incubated for 1 hr by TR-FRET assay.
Test [15] has as its target Homeodomain-interacting protein kinase 2 (Homo sapiens, UniProt Q9H2X6). Nature of the test: Binding affinity to recombinant full-length N-terminal His-FLAG-tagged HIPK2 (unknown origin) expressed in baculovirus infected Sf9 insect cells incubated for 1 hr by TR-FRET assay.

Ephrin type-A receptor 4, sequence (P54764 whole entry, the tested form may be a part): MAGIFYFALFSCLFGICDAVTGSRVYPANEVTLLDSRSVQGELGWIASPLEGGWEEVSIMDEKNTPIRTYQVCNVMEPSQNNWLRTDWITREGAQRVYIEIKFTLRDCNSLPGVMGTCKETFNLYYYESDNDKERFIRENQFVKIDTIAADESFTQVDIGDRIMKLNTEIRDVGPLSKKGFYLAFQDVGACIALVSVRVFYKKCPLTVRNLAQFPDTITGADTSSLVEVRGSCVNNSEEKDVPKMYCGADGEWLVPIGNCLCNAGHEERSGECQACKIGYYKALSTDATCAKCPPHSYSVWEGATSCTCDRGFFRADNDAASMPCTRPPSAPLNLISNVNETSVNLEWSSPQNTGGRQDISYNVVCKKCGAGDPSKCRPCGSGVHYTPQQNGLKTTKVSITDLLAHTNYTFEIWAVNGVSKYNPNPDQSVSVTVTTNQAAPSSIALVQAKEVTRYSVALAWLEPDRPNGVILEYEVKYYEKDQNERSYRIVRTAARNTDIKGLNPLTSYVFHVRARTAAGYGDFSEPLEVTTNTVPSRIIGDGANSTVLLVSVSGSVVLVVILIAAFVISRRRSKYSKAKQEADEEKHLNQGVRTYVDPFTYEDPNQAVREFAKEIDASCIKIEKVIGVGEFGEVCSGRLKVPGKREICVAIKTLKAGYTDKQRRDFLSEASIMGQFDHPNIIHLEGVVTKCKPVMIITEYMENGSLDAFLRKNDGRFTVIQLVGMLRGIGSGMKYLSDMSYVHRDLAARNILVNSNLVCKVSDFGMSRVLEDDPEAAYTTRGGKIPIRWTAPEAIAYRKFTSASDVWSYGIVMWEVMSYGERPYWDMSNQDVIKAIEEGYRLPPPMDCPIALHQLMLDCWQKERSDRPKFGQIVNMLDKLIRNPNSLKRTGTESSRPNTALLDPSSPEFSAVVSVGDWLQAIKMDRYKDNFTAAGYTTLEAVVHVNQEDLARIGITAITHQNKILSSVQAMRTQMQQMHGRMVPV
Tyrosine-protein kinase JAK2, sequence (O60674 whole entry, the tested form may be a part): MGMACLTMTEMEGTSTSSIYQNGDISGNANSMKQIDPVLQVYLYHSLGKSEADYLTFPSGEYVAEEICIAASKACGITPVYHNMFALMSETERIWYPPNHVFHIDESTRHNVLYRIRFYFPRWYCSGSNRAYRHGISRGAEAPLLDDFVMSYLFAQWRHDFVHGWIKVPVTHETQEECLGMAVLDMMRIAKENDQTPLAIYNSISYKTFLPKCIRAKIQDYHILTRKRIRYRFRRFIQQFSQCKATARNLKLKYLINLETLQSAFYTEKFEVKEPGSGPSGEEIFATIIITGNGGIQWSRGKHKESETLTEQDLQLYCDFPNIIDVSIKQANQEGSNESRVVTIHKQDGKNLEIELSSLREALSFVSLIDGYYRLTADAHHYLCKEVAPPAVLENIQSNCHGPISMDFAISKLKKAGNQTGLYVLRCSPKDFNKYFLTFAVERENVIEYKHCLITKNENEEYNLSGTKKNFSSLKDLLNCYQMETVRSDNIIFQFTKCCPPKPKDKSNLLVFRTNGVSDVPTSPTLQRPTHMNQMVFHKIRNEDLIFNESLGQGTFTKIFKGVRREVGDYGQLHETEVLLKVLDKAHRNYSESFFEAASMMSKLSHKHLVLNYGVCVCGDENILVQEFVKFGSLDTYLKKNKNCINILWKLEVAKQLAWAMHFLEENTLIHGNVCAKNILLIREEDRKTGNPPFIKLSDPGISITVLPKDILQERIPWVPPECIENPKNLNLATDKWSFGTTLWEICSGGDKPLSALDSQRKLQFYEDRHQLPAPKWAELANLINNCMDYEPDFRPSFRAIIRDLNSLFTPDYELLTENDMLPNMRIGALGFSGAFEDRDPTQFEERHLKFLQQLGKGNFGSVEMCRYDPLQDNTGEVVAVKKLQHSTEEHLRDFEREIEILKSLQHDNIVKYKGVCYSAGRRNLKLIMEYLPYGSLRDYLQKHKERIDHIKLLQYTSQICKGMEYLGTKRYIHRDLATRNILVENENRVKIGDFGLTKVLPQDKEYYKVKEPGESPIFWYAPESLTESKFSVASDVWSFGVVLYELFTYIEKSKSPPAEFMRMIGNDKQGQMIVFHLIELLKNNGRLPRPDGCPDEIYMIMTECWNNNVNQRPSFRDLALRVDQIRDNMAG
Ephrin type-B receptor 2, sequence (P29323 whole entry, the tested form may be a part): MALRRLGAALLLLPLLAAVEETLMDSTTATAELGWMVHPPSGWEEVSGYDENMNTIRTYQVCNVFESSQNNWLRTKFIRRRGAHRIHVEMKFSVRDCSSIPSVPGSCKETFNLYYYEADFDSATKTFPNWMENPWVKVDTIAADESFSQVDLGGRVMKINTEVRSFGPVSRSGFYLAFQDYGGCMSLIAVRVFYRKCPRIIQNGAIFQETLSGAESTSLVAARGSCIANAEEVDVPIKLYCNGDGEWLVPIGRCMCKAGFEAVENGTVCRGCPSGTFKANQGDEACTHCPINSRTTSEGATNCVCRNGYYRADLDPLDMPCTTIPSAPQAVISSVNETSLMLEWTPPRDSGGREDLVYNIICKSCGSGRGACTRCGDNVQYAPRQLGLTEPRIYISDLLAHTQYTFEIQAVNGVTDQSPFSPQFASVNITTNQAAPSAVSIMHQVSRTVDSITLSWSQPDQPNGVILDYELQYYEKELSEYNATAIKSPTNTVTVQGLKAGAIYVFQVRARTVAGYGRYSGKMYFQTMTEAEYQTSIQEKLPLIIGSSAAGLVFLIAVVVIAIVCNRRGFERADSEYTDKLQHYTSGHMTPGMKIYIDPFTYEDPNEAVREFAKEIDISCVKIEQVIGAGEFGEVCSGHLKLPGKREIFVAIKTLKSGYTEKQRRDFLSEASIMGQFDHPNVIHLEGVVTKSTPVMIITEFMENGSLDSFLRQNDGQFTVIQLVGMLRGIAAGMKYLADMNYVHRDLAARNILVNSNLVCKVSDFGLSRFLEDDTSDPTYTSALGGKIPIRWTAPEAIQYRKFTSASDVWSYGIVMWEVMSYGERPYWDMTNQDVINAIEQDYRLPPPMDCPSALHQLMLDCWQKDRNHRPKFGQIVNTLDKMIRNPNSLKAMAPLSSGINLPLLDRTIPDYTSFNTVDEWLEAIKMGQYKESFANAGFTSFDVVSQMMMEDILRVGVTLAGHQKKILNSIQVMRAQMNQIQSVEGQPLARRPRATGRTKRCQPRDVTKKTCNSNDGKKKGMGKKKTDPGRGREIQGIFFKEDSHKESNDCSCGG
Cyclin-dependent kinase 5/CDK5 activator 1, sequence (Q00535 whole entry, the tested form may be a part): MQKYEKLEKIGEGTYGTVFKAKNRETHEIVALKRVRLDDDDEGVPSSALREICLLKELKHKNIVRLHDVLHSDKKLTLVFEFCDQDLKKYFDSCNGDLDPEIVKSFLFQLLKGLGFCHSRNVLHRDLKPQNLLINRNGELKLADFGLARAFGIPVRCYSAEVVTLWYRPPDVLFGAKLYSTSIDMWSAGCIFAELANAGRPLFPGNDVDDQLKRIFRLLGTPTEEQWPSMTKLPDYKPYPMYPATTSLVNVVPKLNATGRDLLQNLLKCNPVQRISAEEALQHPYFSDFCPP
Cyclin-dependent kinase 5/CDK5 activator 1, sequence (Q15078 whole entry, further chain, the tested form may be a part): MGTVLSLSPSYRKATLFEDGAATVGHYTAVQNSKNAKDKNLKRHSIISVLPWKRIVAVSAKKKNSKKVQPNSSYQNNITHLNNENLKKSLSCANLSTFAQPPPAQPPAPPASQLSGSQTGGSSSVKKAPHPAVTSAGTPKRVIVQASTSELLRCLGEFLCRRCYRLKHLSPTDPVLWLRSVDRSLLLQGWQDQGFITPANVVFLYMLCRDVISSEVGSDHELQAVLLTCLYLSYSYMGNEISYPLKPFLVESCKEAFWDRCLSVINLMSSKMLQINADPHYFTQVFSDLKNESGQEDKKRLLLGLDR
Tyrosine-protein kinase TXK, sequence (P42681 whole entry, the tested form may be a part): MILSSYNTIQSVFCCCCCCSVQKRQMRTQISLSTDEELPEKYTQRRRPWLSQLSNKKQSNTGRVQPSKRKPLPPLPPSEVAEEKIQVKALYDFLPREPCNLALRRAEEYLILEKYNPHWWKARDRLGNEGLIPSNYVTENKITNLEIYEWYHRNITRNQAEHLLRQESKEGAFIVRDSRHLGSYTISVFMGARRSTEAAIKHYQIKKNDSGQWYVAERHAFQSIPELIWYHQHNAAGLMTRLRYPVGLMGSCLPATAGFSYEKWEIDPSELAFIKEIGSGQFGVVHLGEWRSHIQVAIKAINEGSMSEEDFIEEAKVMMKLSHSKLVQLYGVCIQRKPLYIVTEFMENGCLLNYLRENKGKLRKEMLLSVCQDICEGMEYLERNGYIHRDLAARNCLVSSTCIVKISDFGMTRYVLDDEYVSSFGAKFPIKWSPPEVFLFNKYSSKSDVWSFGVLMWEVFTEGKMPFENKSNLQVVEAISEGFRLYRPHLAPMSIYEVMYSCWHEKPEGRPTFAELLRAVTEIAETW
cAMP-dependent protein kinase catalytic subunit PRKX, sequence (P51817 whole entry): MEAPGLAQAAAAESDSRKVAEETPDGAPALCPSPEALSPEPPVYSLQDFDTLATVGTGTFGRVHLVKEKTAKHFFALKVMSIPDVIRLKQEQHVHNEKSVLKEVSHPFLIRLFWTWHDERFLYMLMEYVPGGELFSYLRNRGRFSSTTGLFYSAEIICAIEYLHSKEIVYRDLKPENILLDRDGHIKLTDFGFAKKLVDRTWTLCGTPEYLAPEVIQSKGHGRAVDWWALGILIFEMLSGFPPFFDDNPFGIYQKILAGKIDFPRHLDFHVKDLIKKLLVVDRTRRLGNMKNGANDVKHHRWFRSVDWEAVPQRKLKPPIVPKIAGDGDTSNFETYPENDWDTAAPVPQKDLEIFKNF
Serine/threonine-protein kinase pim-2, sequence (Q9P1W9 whole entry): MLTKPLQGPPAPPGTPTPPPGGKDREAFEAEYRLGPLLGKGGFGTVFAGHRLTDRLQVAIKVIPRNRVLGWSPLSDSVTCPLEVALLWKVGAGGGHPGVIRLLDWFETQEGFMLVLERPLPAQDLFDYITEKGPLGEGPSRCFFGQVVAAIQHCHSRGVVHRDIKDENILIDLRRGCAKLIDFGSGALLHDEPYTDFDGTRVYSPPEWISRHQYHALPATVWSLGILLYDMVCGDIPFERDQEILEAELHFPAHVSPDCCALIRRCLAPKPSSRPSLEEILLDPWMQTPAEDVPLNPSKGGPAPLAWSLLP

Regarding `CO[C@@H]1[C@H](NCCOCCOCCOCCNC(=O)CCC2=[N+]3C(=Cc4c(C)cc(C)n4[B-]3(F)F)C=C2)C[C@H]2O[C@]1(C)n1c3ccccc3c3c4c(c5c6ccccc6n2c5c31)C(=O)NC4`, the Kd at Ephrin type-A receptor 8 was 1560 nM; in [1], 15 nM; in [2], 10 nM; in [3], 7 nM; in test [4], 4 nM; at Ephrin type-B receptor 4 it was 1800 nM. Further, the dissociation constant Kd at Ephrin type-B receptor 2 was found to be 985 nM; in [5] it was 1010 nM; at Ephrin type-B receptor 6, 570 nM; on Ephrin type-A receptor 4 it was 1100 nM; in test [6] it was 147 nM; in [7], 87 nM. Besides, the Kd in test [8] came to 918 nM; in [9] it was 238 nM; in test [10] it was 14 nM; in [11], 109 nM; at CDK2/Cyclin A2, 94 nM; in test [12], 43 nM. The values for the Kd in test [13] and in [14] were 20 nM and 293 nM, respectively.
For `CO[C@@H]1[C@H](N(C)CCOCCOCCOCCNC(=O)CCC2=[N+]3C(=Cc4c(C)cc(C)n4[B-]3(F)F)C=C2)C[C@H]2O[C@]1(C)n1c3ccccc3c3c4c(c5c6ccccc6n2c5c31)C(=O)NC4`, the Kd in [15] is 559 nM.
